# Laboratory results from the supplement of paper PMC11208160.
# Assay: recombinant UMI read abundance after kanamycin selection (control-corrected) (log10(CPM+1)); higher = more efficient recombination; extreme values may be limits of the assay; sequences stand for … in AGTGCAGAGAAAATCGGCCAGTTTTCTCTGCCTGCAGTCCGCATGCCGTGGGACCCCTTGGGTTCTAACCTGTTGCCTAGATTTATGCAGCGGACTGCCTTTCTCCCAAAGTGATAAACCGG…AGGTTGGTTTCACT; site = the 11-nt donor
# In short: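 In a pooled Escherichia coli screen for the IS621 bridge recombinase, donor and donor-binding-loop pairs were each placed with a 12-nt UMI on a plasmid bearing a promoterless kanamycin gene. This library was co-electroporated with a target plasmid encoding a fixed target and T7-inducible recombinase, and cells were plated either on IPTG (0.07 mM) plus kanamycin or without selection, in two replicates each. Recombinant UMIs were PCR-amplified across the donor–target junction and sequenced, and counts were converted to CPM, averaged over replicates, scaled by control-derived factors and reported as log10(CPM+1).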
row,Sequence,recombinant UMI read abundance (log10)
1,CTGCTATCATGGACCGGTTTTCCCGGTAATCCGTATTTGAC (site CTAGTATCTGT),0
2,CTGCTATCATGGACCGGTTTTCCCGGTAATCCGTATTTGAC (site CTGCTATCTGT),1.26
3,CTGCTCCCATGGACCGGTTTTCCCGGTAATCCGTATTTGCT (site CTGCTACCTAG),0
4,CTGCTCCCATGGACCGGTTTTCCCGGTAATCCGTATTTGCT (site CTGCTCCCTAG),1.78
5,CTGCTCCCATGGACCGGTTTTCCCGGTAATCCGTATTTGCT (site CTGCTGCCTAG),0
6,CTGCTCCCATGGACCGGTTTTCCCGGTAATCCGTATTTGCT (site CTGCTTCCTAG),0
7,CTGCTGCCATGGACCGGTTTTCCCGGTAATCCGTATTTGGC (site CTGCTGCCTGC),0
8,CTGGAAACATGGACCGGTTTTCCCGGTAATCCGTATTTGTA (site CTGGAAACTTA),2.14
9,CTGGAAACATGGACCGGTTTTCCCGGTAATCCGTATTTGTA (site CTGGAAACTTC),0.294
10,CTGGAAACATGGACCGGTTTTCCCGGTAATCCGTATTTGTA (site CTGGAAACTTG),1.22
11,CTGGAAACATGGACCGGTTTTCCCGGTAATCCGTATTTGTA (site CTGGAAACTTT),1.81
12,CTGGAAGCATGGACCGGTTTTCCCGGTAATCCGTATTTGCA (site CTGGAAACTTG),0.803
13,CTGGAAGCATGGACCGGTTTTCCCGGTAATCCGTATTTGCA (site CTGGAACCTTG),0
14,CTGGAAGCATGGACCGGTTTTCCCGGTAATCCGTATTTGCA (site CTGGAAGCTTG),1.04
15,CTGGAAGCATGGACCGGTTTTCCCGGTAATCCGTATTTGCA (site CTGGAATCTTG),3.42
16,CTGGACACATGGACCGGTTTTCCCGGTAATCCGTATTTGAG (site CTGGACACTCT),1.47
17,CTGGAGGCATGGACCGGTTTTCCCGGTAATCCGTATTTGTG (site ATGGAGGCTCA),0.00337
18,CTGGAGGCATGGACCGGTTTTCCCGGTAATCCGTATTTGTG (site CTGGAGGCTCA),1.02
19,CTGGAGGCATGGACCGGTTTTCCCGGTAATCCGTATTTGTG (site GTGGAGGCTCA),0.0315

row,Sequence,recombinant UMI read abundance (log10)
1,CTGGAGGCATGGACCGGTTTTCCCGGTAATCCGTATTTGTG (site TTGGAGGCTCA),0.0143
2,CTGGATACATGGACCGGTTTTCCCGGTAATCCGTATTTGCA (site CTGGAAACTTG),1.14
3,CTGGATACATGGACCGGTTTTCCCGGTAATCCGTATTTGCA (site CTGGACACTTG),1.92
4,CTGGATACATGGACCGGTTTTCCCGGTAATCCGTATTTGCA (site CTGGAGACTTG),0.473
5,CTGGATACATGGACCGGTTTTCCCGGTAATCCGTATTTGCA (site CTGGATACTTG),1.81
6,CTGGATACATGGACCGGTTTTCCCGGTAATCCGTATTTGTC (site CTGGATACTGA),1.89
7,CTGGGACCATGGACCGGTTTTCCCGGTAATCCGTATTTGGT (site CTGGGACCTAC),0.0117
8,CTGGGATCATGGACCGGTTTTCCCGGTAATCCGTATTTGCT (site CTGGGATCTAG),1.9
9,CTGGGCGCATGGACCGGTTTTCCCGGTAATCCGTATTTGTA (site CTGGGCGCTTA),1.62
10,CTGGTATCATGGACCGGTTTTCCCGGTAATCCGTATTTGAA (site CTAGTATCTGT),2.25
11,CTGGTATCATGGACCGGTTTTCCCGGTAATCCGTATTTGAA (site CTGGTATCTTT),2.5
12,CTGGTTACATGGACCGGTTTTCCCGGTAATCCGTATTTGAG (site CTGGTTACTCT),1.7
13,CTGTCAGCATGGACCGGTTTTCCCGGTAATCCGTATTTGGG (site CTGTCAGCTCC),0.0174
14,CTGTCCGCATGGACCGGTTTTCCCGGTAATCCGTATTTGAT (site CTGTCCGCTAT),1.96
15,CTGTCGACATGGACCGGTTTTCCCGGTAATCCGTATTTGGG (site CAGTCGACTCC),0.00865
16,CTGTCGACATGGACCGGTTTTCCCGGTAATCCGTATTTGGG (site CCGTCGACTCC),0.0205
17,CTGTCGACATGGACCGGTTTTCCCGGTAATCCGTATTTGGG (site CGGTCGACTCC),0.012
18,CTGTCGACATGGACCGGTTTTCCCGGTAATCCGTATTTGGG (site CTGTCGACTCC),0.0289
19,CTGTCTACATGGACCGGTTTTCCCGGTAATCCGTATTTGTT (site CTGTCTACTAA),0.252

row,Sequence,recombinant UMI read abundance (log10)
1,CTGTGATCATGGACCGGTTTTCCCGGTAATCCGTATTTGAA (site CTGTGATCTTT),2.65
2,CTGTGTGCATGGACCGGTTTTCCCGGTAATCCGTATTTGGT (site CTGTGTGCTAC),1.44
3,CTGTTTGCATGGACCGGTTTTCCCGGTAATCCGTATTTGAA (site CTGTTTGCTTT),1.66
4,CTTCCGACATGGACCGGTTTTCCCGGTAATCCGTATTTGGA (site CTTCCGACTTC),0.0169
5,CTTCCGGCATGGACCGGTTTTCCCGGTAATCCGTATTTGAT (site CTTCCGGCTAT),1.14
6,CTTCGCTCATGGACCGGTTTTCCCGGTAATCCGTATTTGTA (site CTTCACTCTTA),1.14
7,CTTCGCTCATGGACCGGTTTTCCCGGTAATCCGTATTTGTA (site CTTCCCTCTTA),0.0134
8,CTTCGCTCATGGACCGGTTTTCCCGGTAATCCGTATTTGTA (site CTTCGCTCTTA),1.8
9,CTTCGCTCATGGACCGGTTTTCCCGGTAATCCGTATTTGTA (site CTTCTCTCTTA),0.00289
10,CTTCTAACATGGACCGGTTTTCCCGGTAATCCGTATTTGGA (site CTACTAACTTC),0.0127
11,CTTCTAACATGGACCGGTTTTCCCGGTAATCCGTATTTGGA (site CTCCTAACTTC),0.00424
12,CTTCTAACATGGACCGGTTTTCCCGGTAATCCGTATTTGGA (site CTGCTAACTTC),0.00962
13,CTTCTAACATGGACCGGTTTTCCCGGTAATCCGTATTTGGA (site CTTCTAACTTC),0.0115
14,CTTCTCTCATGGACCGGTTTTCCCGGTAATCCGTATTTGAA (site CTTCTCTCTTA),0
15,CTTCTCTCATGGACCGGTTTTCCCGGTAATCCGTATTTGAA (site CTTCTCTCTTC),0.199
16,CTTCTCTCATGGACCGGTTTTCCCGGTAATCCGTATTTGAA (site CTTCTCTCTTG),0
17,CTTCTCTCATGGACCGGTTTTCCCGGTAATCCGTATTTGAA (site CTTCTCTCTTT),0.96
18,CTTGACACATGGACCGGTTTTCCCGGTAATCCGTATTTGAC (site CTTGACACTGT),0.445
19,CTTGCCCCATGGACCGGTTTTCCCGGTAATCCGTATTTGTG (site CTTGCCCCTCA),0.0167
